Data set [1] concerns Jurkat human T lymphocyte cell line. Kind of data set: Apoptosis assay (Annexin V) of compounds incubated with human serum. Particulars: for EC50: Homo sapiens, Jurkat. As to the method:
Compounds of formula I, as shown in Table 1 above and in the Examples, were assayed for their capacity to induce apoptosis in cells from the Jurkat human T lymphocyte cell line, after incubation with pooled human serum for varying periods of time at 37° C. (see Example 19). An ester prodrug, triptolide-14-succinate, designated PG490-88, was included for comparison. The extent of conversion to triptolide after such incubation was also independently determined by HPLC analysis.
The ED50 values (column 3) are calculated directly from the data in each experiment, and the % conversion values (column 4) are calculated as percent of the ED50 value produced by triptolide, designated PG490, incubated in the same plasma (i.e. in the same experiment).
A. Incubation of compounds with human serum. Pooled human serum was stored in aliquots at −80° C. Test compounds were added at 20 mM to thawed human serum in 1.5 ml microfuge tubes and incubated at 37° C. in a water bath for varying periods of time. The test samples were placed on ice until dilution for the bioassay. Controls consisted of the compounds incubated in complete tissue culture medium (RPMI 1640 medium plus 5% heat-inactivated fetal calf serum, 1% HEPES, 1% pen/strep, 1% glutamine) rather than human serum.
B. Apoptosis assay of compounds incubated with human serum. Test samples were diluted to 1 mM in complete tissue culture medium. Aliquots were placed in microculture plates and serial dilutions were prepared so that the final concentration would encompass the range of 1 to 10,000 nM with half-log increments. Cells from an exponentially expanding culture of the Jurkat human T lymphocyte cell line (#TIB-152 obtained from American Type Culture Collection, Manassas, Va.) were harvested, washed once by centrifugation and dilution in complete tissue culture medium, and diluted to a concentration of 1×10^6 cells/ml. A volume of 100 μl of Jurkat cells (1×10^5 cells) was added to wells containing 100 μl of the diluted compounds, and the plates were incubated at 37° C. in a 5% CO2 incubator. After 24 hours, the plates were centrifuged to pellet the cells, and the cells were washed twice with 2% heat-inactivated fetal calf serum in PBS. To each well, 500 ul of binding buffer was added according to the Annexin V assay procedure (BioVision, Inc., Mountain View, Calif.). Next, 5 μl of the fluorescein isothiocyanate (FITC) conjugate of Annexin V (BioVision, Inc.) was added to each well, followed by 5 minutes of incubation in the dark. In some assays, propidium iodide (BioVision, Inc.) was added at this stage to check for necrotic cells. The contents of the wells were individually transferred into test tubes, and apoptosis was analyzed using a FACSCalibur flow cytometer (BD Immunocytometry Systems, San Jose, Calif.). Cells positive for Annexin V binding were considered to be apoptotic, and the data were calculated as percent apoptotic cells.
C. Comparison of bioactivities after incubation of compounds in human serum. The data were plotted as the concentration of compound incubated in serum versus percent apoptotic cells. The concentration of compound inducing 50% apoptosis (ED50) was calculated from these dose response curves. […] This percentage conversion was used to compare the bioactivity of various compounds after incubation in human serum.

Data set [2] has as its system IL-2 production in Jurkat human T lymphocyte cells. Description: IL-2 production assay for activity of compounds incubated with human serum. Particulars: for bioactivity in IL-2 inhibition assays (in words): FIGS. 4-5; for IC50: Homo sapiens, Jurkat, 48 h, IL-2 production in Jurkat cells after incubation with pooled human serum for 48 hours at 37° C.; for Conversion (%): percent of the IC50 value produced by triptolide (PG490) in the same experiment, human serum 48 hours. Here is the method: Several compounds of formula I were analyzed for their capacity to inhibit IL-2 production in Jurkat human T lymphocyte cells, after incubation with pooled human serum for 48 hours at 37° C. (see Example 20). An ester prodrug, triptolide-14-succinate, designated PG490-88, was included for comparison.
The IC50 values (column 1) are calculated directly from the data in each experiment. The % conversion values (column 2) are calculated as the percent of the IC50 value produced by triptolide, designated PG490, incubated in the same plasma (i.e. in the same experiment).
A. IL-2 production assay for activity of compounds incubated with human serum. Test samples were diluted to 1 mM in complete tissue culture medium. […] Cells from an exponentially expanding culture of the Jurkat human T lymphocyte cell line (#TIB-152 obtained from American Type Culture Collection, Manassas, Va.) were harvested, washed once by centrifugation and dilution in complete tissue culture medium, and diluted to a concentration of 2×10^6 cells/ml. A volume of 50 μl of Jurkat cells (1×10^5 cells) was added to wells containing 100 μl of the diluted compounds, 50 μl of PMA (10 ng/ml) was added to each well, and the plates were incubated at 37° C. in a 5% CO2 incubator. After 24 hours, the plates were centrifuged to pellet the cells, 150 μl of supernatant was removed from each well, and the samples were stored at −20° C. The stored supernatants were analyzed for human IL-2 concentration using the Luminex 100 (Luminex Corporation, Austin, Tex.), Luminex microspheres coupled with anti-IL-2 capture antibody, and fluorochrome-coupled anti-IL-2 detection antibody. The data were expressed as ng/ml of IL-2.
B. Comparison of bioactivities after incubation of compounds in human serum. The data were plotted as the concentration of compound incubated in serum versus IL-2 concentration. The concentration of compound inducing a 50% decrease in the IL-2 concentration (IC50) was calculated from these dose response curves. […] This percentage conversion was used to compare the bioactivity of various compounds after incubation in human serum.

Setting [3] is: 48 h, read-out: ED50 (nM) in apoptosis assay after incubation with serum, incubation time in human serum 48 hours, 37° C.
Where [4] appears, read: incubation time in human serum 48 hours.

Structures are written as SMILES. Like-named read-outs stand apart in the source and are kept apart here.

As to `CC(C)[C@]12O[C@H]1[C@@H]1O[C@]13[C@]1(O[C@H]1C[C@H]1C4=C(CC[C@@]13C)C(=O)OC4)[C@@H]2OC(=O)N1CCN(C)CC1` [PG672, N-methylpiperazinecarbonyl (carbamate)], in data set [1], the “conversion in human serum (in words)” value is “less readily converted”. Moreover, the “% apoptotic cells at given concentration (nM)” value (“% apoptotic cells” below) in data set [1] (Table 4, medium, 10000 nM) is 48.6%; in data set [1] (Table 4, serum, 0 hr, 10000 nM), 47.6%; in data set [1] (Table 4, serum, 48 hr, 0.03 nM), 42.7%; in data set [1] (Table 4, serum, 48 hr, 0.1 nM), 45.2%; in data set [1] (Table 4, serum, 48 hr, 0.3 nM), 45.4%; in data set [1] (Table 4, serum, 48 hr, 1 nM) it was 45.9%. Moreover, the “% apoptotic cells” value in data set [1] (Table 4, serum, 48 hr, 3 nM) came to 45.3%; in data set [1] (Table 4, serum, 48 hr, 10 nM), 46.0%; in data set [1] (Table 4, serum, 48 hr, 30 nM), 46.8%; in data set [1] (Table 4, serum, 48 hr, 100 nM) it was 46.6%; in data set [1] (Table 4, serum, 48 hr, 300 nM), 42.3%; in data set [1] (Table 4, serum, 48 hr, 1000 nM), 43.7%. In addition, the “% apoptotic cells” value in data set [1] (Table 4, serum, 48 hr, 3000 nM) was 44.9%; in data set [1] (Table 4, serum, 48 hr, 10000 nM), 63.2%. In addition, in data set [1] (after 48 hr. incubation in human serum), the “apoptotic activity (in words)” value is given as “activity at high concentrations”. The “bioactivity in IL-2 inhibition assays (in words)” value in data set [2] was “some level of bioactivity”. For the same compound, the “IL-2 pg/mL at given concentration (nM)” value in data set [2] (Table 8, Jurkat cells, 0.0001 nM) amounted to 103.3 pg/mL; in data set [2] (Table 8, Jurkat cells, 0.001 nM), 90.8 pg/mL; in data set [2] (Table 8, Jurkat cells, 0.01 nM), 99.1 pg/mL; in data set [2] (Table 8, Jurkat cells, 0.1 nM), 117.1 pg/mL; in data set [2] (Table 8, Jurkat cells, 1 nM), 91.4 pg/mL; in data set [2] (Table 8, Jurkat cells, 10 nM) it was 99.1 pg/mL. The “IL-2 pg/mL at given concentration (nM)” value in data set [2] (Table 8, Jurkat cells, 100 nM) is reported as 64.6 pg/mL; in data set [2] (Table 8, Jurkat cells, 1000 nM), 26.8 pg/mL; in data set [2] (Table 8, Jurkat cells, 10000 nM) it was 8.7 pg/mL.

Take `CC(C)[C@]12O[C@H]1[C@@H]1O[C@]13[C@]1(O[C@H]1C[C@H]1C4=C(CC[C@@]13C)C(=O)OC4)[C@@H]2OC(=O)O[C@H](C)C(=O)OC(C)(C)C` [PG681, Triptolide 14-(R)-α-Methyl-tert-butoxycarbonylmethyl Carbonate]: the EC50 in data set [1] (1 h, read-out: ED50 (nM) in apoptosis assay after incubation with serum, incubation time in human serum 1 hour, 37° C.) turned out to be 684 nM; in data set [1] (setting [3]) it was 139 nM. Further, the entries for the “Conversion, as relative ED50 compared to triptolide (%)” value in data set [1] (incubation time in human serum 1 hour) and in data set [1] (setting [4]) were 7% and 40%, respectively. The compound also displayed an IC50 in data set [2] of 3 nM. For the same compound, in data set [2], the “Conversion (%)” value is given as 55%.

As for `CC(C)[C@]12O[C@H]1[C@@H]1O[C@]13[C@]1(O[C@H]1C[C@H]1C4=C(CC[C@@]13C)C(=O)OC4)[C@@H]2OC(=O)NCCN(C)C` [PG688, Triptolide 14-Dimethylaminoethyl Carbamate], the “conversion in human serum (in words)” value in data set [1] was “less readily converted”. For the same compound, the “% apoptotic cells” value in data set [1] (Table 5, human serum (48 hrs), 1 nM) was determined as 9.2%; in data set [1] (Table 5, human serum (48 hrs), 3 nM), 9.8%; in data set [1] (Table 5, human serum (48 hrs), 10 nM) it was 9.4%; in data set [1] (Table 5, human serum (48 hrs), 30 nM), 9.5%; in data set [1] (Table 5, human serum (48 hrs), 100 nM) it was 9.4%; in data set [1] (Table 5, human serum (48 hrs), 300 nM), 8.7%. In addition, the “% apoptotic cells” value stood at 8.6% in data set [1] (Table 5, human serum (48 hrs), 1000 nM); 8.2% in data set [1] (Table 5, human serum (48 hrs), 3000 nM); 13.0% in data set [1] (Table 5, medium, 1 nM); 14.0% in data set [1] (Table 5, medium, 3 nM); 12.1% in data set [1] (Table 5, medium, 10 nM); 10.9% in data set [1] (Table 5, medium, 30 nM). The “% apoptotic cells” value in data set [1] (Table 5, medium, 100 nM) was 11.2%; in data set [1] (Table 5, medium, 300 nM) it was 11.3%; in data set [1] (Table 5, medium, 1000 nM), 12.1%; in data set [1] (Table 5, medium, 3000 nM) it was 10.9%. Further, the “bioactivity in IL-2 inhibition assays (in words)” value in data set [2] was “some level of bioactivity”. Besides, the “IL-2 pg/mL at given concentration (nM)” value in data set [2] (Table 7, Jurkat cells (48 hrs), 0.001 nM) stood at 883.9 pg/mL; in data set [2] (Table 7, Jurkat cells (48 hrs), 0.01 nM) it was 754.1 pg/mL; in data set [2] (Table 7, Jurkat cells (48 hrs), 0.1 nM), 810.4 pg/mL; in data set [2] (Table 7, Jurkat cells (48 hrs), 1 nM), 900.4 pg/mL; in data set [2] (Table 7, Jurkat cells (48 hrs), 10 nM), 796.3 pg/mL; in data set [2] (Table 7, Jurkat cells (48 hrs), 100 nM), 873.3 pg/mL. Further, the “IL-2 pg/mL at given concentration (nM)” value was determined as 759.9 pg/mL in data set [2] (Table 7, Jurkat cells (48 hrs), 1000 nM) and 459.8 pg/mL in data set [2] (Table 7, Jurkat cells (48 hrs), 10000 nM).

On to `CC(C)[C@]12O[C@H]1[C@@H]1O[C@]13[C@]1(O[C@H]1C[C@H]1C4=C(CC[C@@]13C)C(=O)OC4)[C@@H]2OC(=O)OC(C)(C)C` [PG695, Triptolide 14-tert-Butyl Carbonate], for which, in data set [1] (setting [3]), the EC50 turned out to be 59 nM. For the same compound, the “Conversion, as relative ED50 compared to triptolide (%)” value in data set [1] (setting [4]) is given as 100%. For the same compound, in data set [2], half-maximal inhibition (IC50) was put at 100 nM and the “Conversion (%)” value is 2%.

One may read the IC50 as the concentration at which inhibition is half-maximal.

Source of the values: patent US20110076293A1, “TRIPTOLIDE DERIVATIVES FOR MODULATION OF APOPTOSIS AND IMMUNOSUPPRESSION” (priority 2002, published 2011).
